Experimental data taken from PMC10682911 (Saudi Pharmaceutical Journal : SPJ, 2023).
“And” between values parts separate entries of the source, which are not always exact repeats. Equal values may be shown once.

Assays:
hCA I = hCA I (Homo sapiens, UniProt P00915); assay: hCA I inhibition, stopped-flow technique; type: biochemical
hCA II = hCA II (Homo sapiens, UniProt P00918); assay: hCA II inhibition, stopped-flow technique; type: biochemical
hCA IX = hCA IX (Homo sapiens, UniProt Q16790); assay: biochemical; settings: for Ki: Ki hCA IX, stopped-flow technique, mean from 3 different assays; for Selectivity analysis hCA I/IX / Selectivity analysis hCA II/IX: SI; for Selectivity analysis hCA I/IX: hCA IX over hCA I (ratio of Ki); for Selectivity analysis hCA II/IX: hCA IX over hCA II (ratio of Ki)
hCA XII = hCA XII (Homo sapiens, UniProt O43570); assay: hCA XII inhibition, stopped-flow technique; type: biochemical; settings: for Selectivity analysis hCA I/XII / Selectivity analysis hCA II/XII: SI; for Selectivity analysis hCA I/XII: hCA XII over hCA I (ratio of Ki); for Selectivity analysis hCA II/XII: hCA XII over hCA II (ratio of Ki)
hCA XII, sequence (O43570 25-354): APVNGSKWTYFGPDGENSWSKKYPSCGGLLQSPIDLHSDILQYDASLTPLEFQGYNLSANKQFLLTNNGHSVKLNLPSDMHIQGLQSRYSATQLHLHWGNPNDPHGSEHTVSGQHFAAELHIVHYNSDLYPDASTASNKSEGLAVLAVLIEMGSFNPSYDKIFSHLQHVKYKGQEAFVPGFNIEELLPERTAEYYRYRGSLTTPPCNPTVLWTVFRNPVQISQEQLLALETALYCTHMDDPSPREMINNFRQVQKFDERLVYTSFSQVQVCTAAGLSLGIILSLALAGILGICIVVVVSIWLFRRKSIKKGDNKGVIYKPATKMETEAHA

hCA I, sequence (P00915 whole entry): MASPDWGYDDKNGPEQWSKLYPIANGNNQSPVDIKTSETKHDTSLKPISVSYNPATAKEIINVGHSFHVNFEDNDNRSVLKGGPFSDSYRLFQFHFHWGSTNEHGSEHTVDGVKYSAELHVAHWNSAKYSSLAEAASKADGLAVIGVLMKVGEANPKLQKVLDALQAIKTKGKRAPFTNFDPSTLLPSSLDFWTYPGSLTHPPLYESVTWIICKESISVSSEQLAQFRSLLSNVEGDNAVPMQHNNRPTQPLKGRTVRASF

Row | Ki (hCA I) [nM] | Ki (hCA II) [nM] | Ki (hCA IX) | Selectivity analysis hCA I/IX (hCA IX) | Selectivity analysis hCA II/IX (hCA IX) | Ki (hCA XII) [nM] | Selectivity analysis hCA I/XII (hCA XII) | Selectivity analysis hCA II/XII (hCA XII) | Compound
1 | 1690 | 228 | 29.4 nM | 57.65 | 7.77 | 79.9 | 21.21 | 2.86 | COc1ccc(OC)c(C(C)=NNC(=O)CSc2nc3ccccc3c(=O)n2CCc2ccc(S(N)(=O)=O)cc2)c1 [Compound 20, 4-(2-(2-((2-(2-(1-(2,5-Dimethoxyphenyl)ethylidene)hydrazineyl)-2-oxoethyl)thio)-4-oxoquinazolin-3(4H)-yl)ethyl)benzenesulfonamide]
2 | 1980 | 665 | 124 nM | 16.05 | 5.38 | 91.5 | 21.66 | 7.27 | COc1cc(C=NNC(=O)CSc2nc3ccccc3c(=O)n2CCc2ccc(S(N)(=O)=O)cc2)cc(OC)c1OC [Compound 13, 4-(2-(4-Oxo-2-((2-Oxo-2-(2-(3,4,5-trimethoxybenzylidene)hydrazineyl)ethyl)thio)quinazolin-3(4H)-yl)ethyl)benzenesulfonamide]
3 | 1060 | 260 | 88.3 nM | 11.98 | 2.94 | 69.2 | 15.289 | 3.75 | COc1ccc(C=NNC(=O)CSc2nc3ccccc3c(=O)n2CCc2ccc(S(N)(=O)=O)cc2)cc1OC [Compound 12, 4-(2-(2-((2-(2-(3,4-Dimethoxybenzylidene)hydrazineyl)-2-oxoethyl)thio)-4-oxoquinazolin-3(4H)-yl)ethyl)benzenesulfonamide]
4 | 1160 | 131 | 52.7 nM | 21.95 | 2.48 | 58 | 19.95 | 2.25 | COc1cc(OC)cc(C(C)=NNC(=O)CSc2nc3ccccc3c(=O)n2CCc2ccc(S(N)(=O)=O)cc2)c1 [Compound 21, 4-(2-(2-((2-(2-(1-(3,5-Dimethoxyphenyl)ethylidene)hydrazineyl)-2-oxoethyl)thio)-4-oxoquinazolin-3(4H)-yl)ethyl)benzenesulfonamide]
5 | 2310 | 333 | 184 nM | 12.52 | 1.80 | 85.2 | 27.09 | 3.90 | COc1cc(C(C)=NNC(=O)CSc2nc3ccccc3c(=O)n2CCc2ccc(S(N)(=O)=O)cc2)cc(OC)c1OC [Compound 22, 4-(2-(4-Oxo-2-((2-oxo-2-(2-(1-(3,4,5-trimethoxyphenyl)ethylidene)hydrazineyl)ethyl)thio)quinazolin-3(4H)-yl)ethyl)benzenesulfonamide]
6 | 558 | 83.4 | 49.7 nM | 11.23 | 1.68 | 46.5 | 12.00 | 1.79 | COc1ccc(C=NNC(=O)CSc2nc3ccccc3c(=O)n2CCc2ccc(S(N)(=O)=O)cc2)cc1 [Compound 10, 4-(2-(2-((2-(2-(4-Methoxybenzylidene)hydrazineyl)-2-oxoethyl)thio)-4-oxoquinazolin-3(4H)-yl)ethyl)benzenesulfonamide]
7 | 692 | 101 | 16.5 nM | 41.95 | 6.10 | 52.8 | 13.11 | 1.91 | NS(=O)(=O)c1ccc(CCn2c(SCC(=O)NN=Cc3ccc4c(c3)OCO4)nc3ccccc3c2=O)cc1 [Compound 15, 4-(2-(2-((2-(2-(Benzo[d][1,3]dioxol-5-ylmethylene)hydrazineyl)-2-oxoethyl)thio)-4-oxoquinazolin-3(4H)-yl)ethyl)benzenesulfonamide]
8 |  |  |  |  | 0.31 |  |  |  | NNC(=O)CSc1nc2ccccc2c(=O)n1CCc1ccc(S(N)(=O)=O)cc1 [Compound 3, 4-(2-(2-((2-hydrazineyl-2-oxoethyl)thio)-4-oxoquinazolin-3(4H)-yl)ethyl)benzenesulfonamide]
9 | 957 | 90.1 | 38.9 nM | 24.60 | 2.31 | 34.7 | 27.58 | 2.60 | NS(=O)(=O)c1ccc(CCn2c(SCC(=O)NN=Cc3cccc(O)c3)nc3ccccc3c2=O)cc1 [Compound 6, 4-(2-(2-((2-(2-(3-Hydroxybenzylidene)hydrazineyl)-2-oxoethyl)thio)-4-oxoquinazolin-3(4H)-yl)ethyl)benzenesulfonamide]
10 | 665 | 76.4 | 62.6 nM and 62.2 nM | 10.68 | 1.23 | 19.5 | 34.08 | 3.92 | NS(=O)(=O)c1ccc(CCn2c(SCC(=O)NN=Cc3ccc(O)cc3)nc3ccccc3c2=O)cc1 [Compound 7, 4-(2-(2-((2-(2-(4-Hydroxybenzylidene)hydrazineyl)-2-oxoethyl)thio)-4-oxoquinazolin-3(4H)-yl)ethyl)benzenesulfonamide]
11 | 857 | 29.7 | 60.1 nM | 14.25 | 0.50 | 14.2 | 60.35 | 2.09 | COc1cc(C=NNC(=O)CSc2nc3ccccc3c(=O)n2CCc2ccc(S(N)(=O)=O)cc2)ccc1O [Compound 14, 4-(2-(2-((2-(2-(4-Hydroxy-3-methoxybenzylidene)hydrazineyl)-2-oxoethyl)thio)-4-oxoquinazolin-3(4H)-yl)ethyl)benzenesulfonamide]
12 | 2300 | 50.9 | 52.7 nM | 43.60 |  | 74.3 | 30.928 | 0.68 | COc1ccc(C=NNC(=O)CSc2nc3ccccc3c(=O)n2CCc2ccc(S(N)(=O)=O)cc2)c(OC)c1 [Compound 11, 4-(2-(2-((2-(2-(2,4-Dimethoxybenzylidene)hydrazineyl)-2-oxoethyl)thio)-4-oxoquinazolin-3(4H)-yl)ethyl)benzenesulfonamide]
13 | 825 | 189 | 40.3 nM | 20.46 | 4.70 | 68.1 | 12.108 | 2.77 | COc1ccc(C(C)=NNC(=O)CSc2nc3ccccc3c(=O)n2CCc2ccc(S(N)(=O)=O)cc2)cc1OC [Compound 19, 4-(2-(2-((2-(2-(1-(3,4-Dimethoxyphenyl)ethylidene)hydrazineyl)-2-oxoethyl)thio)-4-oxoquinazolin-3(4H)-yl)ethyl)benzenesulfonamide]
